Assay results reported in US4721707A, “Complex salt” (priority 1982, dated 1988).
“Also recorded” adds a separate entry of the source.

What was measured:
[1] = test system: rats; conditions: i.v.; cited from earlier work
[2] = Solubility / dissolution of I and of mixtures of I and sodium thiosulphate pentahydrate; assay type: physicochemical; conditions: for solubility in weaker ethanol: weaker than 50% ethanol
Method: Mixtures of I and thiosulphate must not however, be heated in solution above 50° C., since otherwise the trimethaphan cation can decompose.
Therefore, the problem arose to find a physiologically acceptable solvent in which a mixture of I and thiosulphate in the weight ratio of about 1:1 to about 1:40 can dissolve to at least 5-10%, in a temperature range which for practical reasons should embrace temperatures between about 15° C. and about 35° C. Moreover, the concentrated solution should be able to dissolve without problem in the amount (250-1000 ml) of physiological sodium chloride solution or isotonic (5%) glucose solution required for final dilution.
For example, the mixture of 50 mg of I and 1000 mg of sodium thiosulphate pentahydrate dissolved

[3] = test system: patients; conditions: infusion in patients; listed as TMC; cited from earlier work
[4] = test system: blood pressure; conditions: TMC; cited from earlier work
[5] = Solubility of SNP, TMC, TNP and mixtures (Example 10); assay type: physicochemical; conditions: for amount of solvent giving clear solution: 22° C., SNP 50 mg, TMC 250 mg; for solubility of mixtures / TNP: borderline amount of solvent: 50 + 500 mg (1 + 10)
Method: At room temperature (22° C.) clear solutions were obtained in the following solvents from the following compounds: […]

[6] = test system: blood pressure; assay: Infusion dosage required to achieve a given lowering of the blood pressure in a cat under Nembutal narcosis (Table I, FIG. 4); assay type: in vivo; set-up: key to Infusion dosage required for lowering of blood pressure (symbol): *: Limit of activity and/or predominance of toxic side effects; conditions: for Infusion dosage required for lowering of blood pressure / Infusion dosage required for lowering of blood pressure (symbol): i.v. infusion
Method: This is evident, for example, from the following experiment:
The various infusion solutions listed below were infused i.v. in succession, with appropriate recovery intervals, into a male, spontaneously respiring cat weighing 3.7 kg under Nembutal narcosis, and the dosages required to achieve a given lowering of the blood pressure were determined.
For the preparation of the infusion solutions, the substances or their concentrated stock solutions were diluted with 0.9% sodium chloride solution to a uniform infusion strength of 9 mg/100 ml (90 ug/ml). All solutions were freshly prepared and infused with the exclusion of light (aluminium foil) corresponding to the dosages given below.
The values given in Table I hereinafter were determined graphically.
FIG. 4, a comparison of equieffective doses of A, B, C, D and E, is derived from the figures in Table I, and further indicates the unobvious superiority of infusion solutions having a weight ration of less than 1:10 of the salts.
On the Y-axis, the weight percent of the trimethaphan ion in trimethaphan camsylate needed to achieve the indicated level of hypotension reduction is always set at 100% for each level, indicating the infusion solution of C. The X-axis measures the weight of nitroprusside ion expressed as a weight percent of the trimethaphan ion needed; B, having no trimethaphan, is set at 0 weight percent. The percents for A, D, and E are as indicated.
The hypotenuse of the triangle indicates the hypotensive effect expected to result from using mixtures of nitroprusside and trimethaphan ions. […] The lower and more to the left the values are, the higher the degree of synergism.

[7] = assay type: physicochemical; conditions: room temperature; for storability: light excluded
Method: (§1) The semihydrate forms compact needles from water (1/2H2 O calculated 0.94%, found 1.00%). […] Its solubility in water is 0.2% at room temperature. Its solubility in 60% ethanol is much better, and is about 3% at room temperature.
For the preparation of an infusion solution, the ampoule contents are dissolved in at least 220, at most 900 ml of sterile 0.9% sodium chloride solution or 5% glucose solution by vigorous shaking for a short time, whereafter the volume is brought to 250, 500 or 1000 ml. The infusion vessels and tubes are either to be covered with aluminum foil or must consist of material which is opaque to light.
50 mg of finely pulverized (+)-bis-(trimethaphan)-nitroprusside are filled into a sterilized, brown 5 ml flask closable with a synthetic stopper. 3 ml of 60% ethanol are sealed in a solvent ampoule and sterilized. […] Immediately before use the solid substance is dissolved in the solvent and the thus-obtained stock solution is used for the preparation of the infusion solution.

[8] = Solubility of (+)-bis-(trimethaphan)-nitroprusside and its semihydrate (Example 1); assay type: physicochemical
Excerpt: as §1

O=S([O-])([O-])=S.[Na+].[Na+] [sodium thiosulphate, reference compound]
LD50 [1]: 2500 mg/kg | solubility in over 40% ethanol ([2]; especially at temperatures <50° C.): only very limited solubility | solubility in weaker ethanol [2]: better solubility

O=C1N(Cc2ccccc2)C2C[S+]3CCCC3C2N1Cc1ccccc1 (stereo not shown) [C, trimethaphan camsylate, reference compound]
side effects [3]: tachycardia, mydriasis, cycloplegia, urine retention, xerostomia and constipation; also recorded: nausea or vomiting; also recorded: allergies | dosage required for the controlled lowering of blood pressure [4]: about 30 ug/kg or more per minute | amount of solvent giving clear solution ([5]; 5% dextrose): 10 mL | amount of solvent giving clear solution ([5]; 40% ethanol): 10 mL | amount of solvent giving clear solution ([5]; 60% ethanol): 2 mL | amount of solvent giving clear solution ([5]; water): 10 mL | Infusion dosage required for lowering of blood pressure ([6]; -20 mm Hg, cat): 6.0 ug/kg · min | Infusion dosage required for lowering of blood pressure ([6]; -30 mm Hg, cat): 18 ug/kg · min | Infusion dosage required for lowering of blood pressure ([6]; -40 mm Hg, cat): 55 ug/kg · min | Infusion dosage required for lowering of blood pressure (symbol) ([6]; -50 mm Hg, cat): * | Infusion dosage required for lowering of blood pressure (symbol) ([6]; -55 mm Hg, cat): * | Infusion dosage required for lowering of blood pressure (symbol) ([6]; -75 mm Hg, cat): * | activity compared with other test substances (in words) ([6]; cat, comparison among A to E): significantly less active | limit of activity ([6]; lowering of blood pressure, cat): -40 mm Hg

bis-(trimethaphan)-nitroprusside
solubility of mixtures / TNP: borderline amount of solvent ([5]; 5% dextrose, 125 + 500 mg (1 + 4), TNP 40 mg (highly purified product)): 100 mL | solubility of mixtures / TNP: borderline amount of solvent ([5]; 40% ethanol, TNP 40 mg): 25 mL | solubility of mixtures / TNP: borderline amount of solvent ([5]; 60% ethanol, 125 + 500 mg (1 + 4), TNP 40 mg): 2 mL | storability [7]: can be stored without further additives | ethanol concentration required for concentrated stock solution ([2]; ethanol-water, room temperature (22° C.), FIG. 1): at least 40% | solubility in water (in words) ([2]; water): poorly soluble in water | solubility in weaker ethanol [2]: no longer completely soluble | synergistic activity ([6]; nitroprusside and trimethaphan ions in molar ratio 1:2, FIG. 4 / Table I): maximum synergistic activity

(+)-bis-/(3aS,8aR,8bR)-1,3-dibenzyldecahydro-2-oxoimidazo[4,5-c]thieno[1,2-a]thiolium/nitrosylpentacyano-ferrate
storability [7]: can be stored for a very long time | solubility in aqueous ethanol ([8]; aqueous ethanol): dissolves readily | solubility in water, absolute ethanol and cyclohexane ([8]; water, absolute ethanol and cyclohexane): only very slightly soluble | Infusion dosage required for lowering of blood pressure ([6]; -20 mm Hg, cat): 1.5 ug/kg · min | Infusion dosage required for lowering of blood pressure ([6]; -30 mm Hg, cat): 2.3 ug/kg · min | Infusion dosage required for lowering of blood pressure ([6]; -40 mm Hg, cat): 3.5 ug/kg · min | Infusion dosage required for lowering of blood pressure ([6]; -50 mm Hg, cat): 5.8 ug/kg · min | Infusion dosage required for lowering of blood pressure ([6]; -55 mm Hg, cat): 7.8 ug/kg · min | Infusion dosage required for lowering of blood pressure ([6]; -75 mm Hg, cat): 40 ug/kg · min | limit of activity (in words) ([6]; compared with all the other substances or mixtures): significantly higher limit of activity than all the other substances or mixtures | strength of activity (in words) ([6]; slight lowering of the blood pressure (to -30 mm Hg)): approximately comparable strengths of activity; also recorded: shows up best

bis-(trimethaphan)-nitroprusside semihydrate
stability at storage [7]: stable | water loss at storage [7]: does not lose water | solubility in 60% ethanol ([8]; room temperature): about 3% | solubility in water ([8]; room temperature): 0.2%
